From US10072026B2, “Crystalline form of 3-((1R,3s,5S)-3-((7-((5-methyl-1H-pyrazol-3-yl)amino)-1,6-naphthyridin-5-yl)amino)-8-azabicyclo[3.2.1]octan-8-yl)propanenitrile” (priority 2015, dated 2018)
Read-outs that look alike come from different tables or passages of the source.

How the values were obtained:
[1] = target: JAK2 (Homo sapiens (Human), UniProt O60674); assay: LanthaScreen JAK biochemical assay (JAK2); conditions: for Ki: read-out: JAK 2 (pKi) (converted)
[2] = target: Tyk2 (Homo sapiens (Human), UniProt P29597); assay: LanthaScreen JAK biochemical assay (Tyk2); conditions: for Ki: read-out: Tyk 2 (pKi) (converted)
Tyk2, sequence (P29597 whole entry): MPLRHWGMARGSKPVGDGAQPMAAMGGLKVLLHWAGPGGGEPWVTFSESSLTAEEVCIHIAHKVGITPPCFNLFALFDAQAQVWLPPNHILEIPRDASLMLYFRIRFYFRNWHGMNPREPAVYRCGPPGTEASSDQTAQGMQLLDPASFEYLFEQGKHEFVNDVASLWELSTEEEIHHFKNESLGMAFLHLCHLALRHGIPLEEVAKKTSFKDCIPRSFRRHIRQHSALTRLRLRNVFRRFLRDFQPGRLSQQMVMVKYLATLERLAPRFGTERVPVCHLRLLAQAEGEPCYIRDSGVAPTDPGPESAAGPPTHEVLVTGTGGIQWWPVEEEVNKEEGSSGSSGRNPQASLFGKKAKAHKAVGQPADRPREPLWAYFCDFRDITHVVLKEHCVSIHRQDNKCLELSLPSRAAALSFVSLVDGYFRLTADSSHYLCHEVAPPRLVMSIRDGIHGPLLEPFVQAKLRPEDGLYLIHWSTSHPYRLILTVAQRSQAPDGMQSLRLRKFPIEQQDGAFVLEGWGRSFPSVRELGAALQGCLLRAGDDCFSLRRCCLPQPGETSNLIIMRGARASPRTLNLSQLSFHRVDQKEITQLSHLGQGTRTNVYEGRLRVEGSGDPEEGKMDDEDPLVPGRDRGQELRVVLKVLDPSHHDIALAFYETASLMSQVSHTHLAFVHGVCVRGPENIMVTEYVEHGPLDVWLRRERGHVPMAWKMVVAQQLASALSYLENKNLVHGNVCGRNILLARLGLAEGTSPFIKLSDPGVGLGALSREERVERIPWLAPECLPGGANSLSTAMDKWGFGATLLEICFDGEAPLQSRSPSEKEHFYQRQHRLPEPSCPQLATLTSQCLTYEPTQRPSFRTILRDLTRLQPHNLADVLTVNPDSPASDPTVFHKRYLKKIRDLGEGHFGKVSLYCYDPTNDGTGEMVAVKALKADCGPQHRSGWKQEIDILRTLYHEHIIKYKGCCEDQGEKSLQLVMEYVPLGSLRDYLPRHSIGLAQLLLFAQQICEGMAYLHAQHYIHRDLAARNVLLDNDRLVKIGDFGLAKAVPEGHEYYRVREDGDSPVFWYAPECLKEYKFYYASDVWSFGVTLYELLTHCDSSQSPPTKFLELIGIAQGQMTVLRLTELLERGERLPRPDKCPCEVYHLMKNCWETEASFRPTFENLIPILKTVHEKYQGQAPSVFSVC

[3] = test system: IL-4 induced STAT6 phosphorylation in THP-1 human monocytic cells; assay: Cellular JAK potency assay, THP-1
[4] = target: JAK1 (Homo sapiens (Human), UniProt P23458); assay: LanthaScreen JAK biochemical assay (JAK1)
JAK1, sequence (P23458 whole entry): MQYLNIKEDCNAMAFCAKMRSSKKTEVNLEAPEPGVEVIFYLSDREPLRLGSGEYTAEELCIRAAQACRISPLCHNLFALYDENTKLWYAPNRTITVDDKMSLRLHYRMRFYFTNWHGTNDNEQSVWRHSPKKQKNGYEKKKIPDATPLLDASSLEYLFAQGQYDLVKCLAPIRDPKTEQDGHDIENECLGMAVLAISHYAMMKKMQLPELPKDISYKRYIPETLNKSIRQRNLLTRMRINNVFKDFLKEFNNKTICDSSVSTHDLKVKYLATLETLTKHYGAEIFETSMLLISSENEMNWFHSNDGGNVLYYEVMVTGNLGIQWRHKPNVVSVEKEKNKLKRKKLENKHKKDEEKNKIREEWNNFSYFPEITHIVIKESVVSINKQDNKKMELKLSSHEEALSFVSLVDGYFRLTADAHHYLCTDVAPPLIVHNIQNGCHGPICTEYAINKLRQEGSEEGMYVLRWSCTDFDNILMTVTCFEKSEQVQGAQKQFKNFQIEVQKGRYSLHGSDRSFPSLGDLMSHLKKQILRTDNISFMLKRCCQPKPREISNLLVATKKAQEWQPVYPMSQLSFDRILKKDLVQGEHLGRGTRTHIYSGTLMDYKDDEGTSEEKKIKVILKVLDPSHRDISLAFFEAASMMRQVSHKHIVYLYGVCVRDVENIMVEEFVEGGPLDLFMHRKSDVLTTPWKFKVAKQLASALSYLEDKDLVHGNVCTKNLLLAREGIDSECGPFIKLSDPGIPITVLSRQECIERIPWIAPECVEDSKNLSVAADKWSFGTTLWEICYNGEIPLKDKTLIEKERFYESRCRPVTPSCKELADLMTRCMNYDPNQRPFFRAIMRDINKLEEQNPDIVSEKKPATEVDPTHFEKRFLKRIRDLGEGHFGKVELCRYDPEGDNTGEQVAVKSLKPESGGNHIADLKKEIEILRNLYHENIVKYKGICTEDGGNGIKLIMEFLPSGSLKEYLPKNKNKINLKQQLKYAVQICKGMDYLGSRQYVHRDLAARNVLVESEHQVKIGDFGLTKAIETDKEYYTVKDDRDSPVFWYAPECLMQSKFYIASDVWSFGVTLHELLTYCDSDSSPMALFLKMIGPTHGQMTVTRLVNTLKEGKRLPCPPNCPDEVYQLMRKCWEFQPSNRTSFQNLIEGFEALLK

[5] = test system: IL-13 induced STAT6 phosphorylation in BEAS-2B human lung epithelial cells; assay: AlphaScreen cellular JAK potency assay, BEAS-2B
[6] = Homo sapiens, THP-1, read-out: THP-1 IL4 pIC50 (converted)
[7] = IL-4 induced STAT6 phosphorylation, THP-1 cells
[8] = read-out: JAK 1 (pKi) (converted)
[9] = THP-1 cells, IL-4 induced STAT6 phosphorylation
[10] = IL-13 induced STAT6 phosphorylation, BEAS-2B cells
[11] = BEAS-2B cells, IL-13 induced STAT6 phosphorylation
[12] = Homo sapiens, BEAS-2B, read-out: BEAS2B pIC50 (converted)

JAK2, sequence (O60674 whole entry): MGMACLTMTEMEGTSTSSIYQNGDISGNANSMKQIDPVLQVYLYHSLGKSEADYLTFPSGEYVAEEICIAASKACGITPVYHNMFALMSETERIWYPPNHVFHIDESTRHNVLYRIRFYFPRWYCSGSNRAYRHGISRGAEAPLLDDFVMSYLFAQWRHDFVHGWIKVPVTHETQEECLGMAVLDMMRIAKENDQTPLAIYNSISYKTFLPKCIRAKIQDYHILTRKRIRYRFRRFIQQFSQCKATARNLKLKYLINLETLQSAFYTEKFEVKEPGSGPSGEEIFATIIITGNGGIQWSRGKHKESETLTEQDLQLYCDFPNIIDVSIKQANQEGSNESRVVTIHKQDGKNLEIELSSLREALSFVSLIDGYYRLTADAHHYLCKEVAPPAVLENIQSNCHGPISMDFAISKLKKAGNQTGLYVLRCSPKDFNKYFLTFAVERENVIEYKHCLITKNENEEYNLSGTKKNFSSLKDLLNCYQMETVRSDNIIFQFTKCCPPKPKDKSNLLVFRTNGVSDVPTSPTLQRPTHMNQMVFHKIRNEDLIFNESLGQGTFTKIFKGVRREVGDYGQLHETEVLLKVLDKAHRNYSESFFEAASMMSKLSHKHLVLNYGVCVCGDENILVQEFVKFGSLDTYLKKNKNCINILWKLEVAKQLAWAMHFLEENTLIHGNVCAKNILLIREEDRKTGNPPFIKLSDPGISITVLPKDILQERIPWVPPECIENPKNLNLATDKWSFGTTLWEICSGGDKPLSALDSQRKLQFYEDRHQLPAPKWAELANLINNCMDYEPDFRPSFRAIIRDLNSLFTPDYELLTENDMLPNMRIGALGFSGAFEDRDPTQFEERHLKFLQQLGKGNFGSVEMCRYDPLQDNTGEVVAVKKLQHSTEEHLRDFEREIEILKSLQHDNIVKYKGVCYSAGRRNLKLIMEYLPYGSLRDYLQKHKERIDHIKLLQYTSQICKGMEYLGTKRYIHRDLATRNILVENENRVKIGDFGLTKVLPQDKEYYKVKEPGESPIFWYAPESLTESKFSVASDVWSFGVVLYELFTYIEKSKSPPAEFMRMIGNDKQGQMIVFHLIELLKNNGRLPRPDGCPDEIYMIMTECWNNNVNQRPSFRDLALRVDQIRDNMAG

SMILES | Ki [1] | Ki [2] | IC50 [3, 6] | JAK 2 (pKi) [1] | JAK 1 (pKi) [4] | also measured
Cc1cc(Nc2cc3ncccc3c(N[C@@H]3C[C@H]4CC[C@@H](C3)N4C3CCCOC3=O)n2)n[nH]1 (stereo partly drawn) [Example 1-28] | 1 to 100 nM | 1 to 100 nM | > 200 nM | – | – | –
CCS(=O)(=O)N1[C@@H]2CC[C@H]1C[C@H](Nc1nc(Nc3cc(C)[nH]n3)cc3ncc(C(=O)OC)cc13)C2 [Example 6-34] | – | 0.1 to 1 nM | < 31.6 nM | – | – | –
Cc1cc(Nc2cc3ncccc3c(N[C@@H]3C[C@H]4CCC[C@@H](C3)N4CC(N)=O)n2)n[nH]1 [Example 1-37] | – | – | – | A (A represents a pKi value≥10 (Ki≤0.1 nM)) | – | Tyk 2 (pKi) [2]: C (C represents a pKi value between 7 and 9 (Ki between 100 nM and 1 nM)); THP-1 IL4 pIC50 [3, 7]: B (B represents a pEC50 value between 6.7 and 7.5 (EC50 between 200 nM and 32 nM))
Cc1cc(Nc2cc3nc(CS(C)(=O)=O)ccc3c(N[C@@H]3C[C@H]4CC[C@@H](C3)N4CCF)n2)n[nH]1 [Example 5-41] | – | – | – | B (B represents a pKi value between 9 and 10 (Ki between 1 nM and 0.1 nM)) | B (B represents a pKi value between 9 and 10 (Ki between 1 nM and 0.1 nM)) | Tyk 2 (pKi) [2]: B (B represents a pKi value between 9 and 10 (Ki between 1 nM and 0.1 nM)); THP-1 IL4 pIC50 [3, 7]: C (C represents a pEC50 value<6.7 (EC50>200 nM))
CCC1(S(=O)(=O)N2[C@@H]3CC[C@H]2C[C@H](Nc2nc(Nc4cc(C)[nH]n4)cc4ncccc24)C3)CC1 [Example 4-7] | 0.1 to 1 nM | 0.1 to 1 nM | < 31.6 nM | – | – | Ki [4]: 0.1 to 1 nM
COC(=O)c1cnc2cc(Nc3cc(C)[nH]n3)nc(N[C@@H]3C[C@H]4CC[C@@H](C3)N4S(C)(=O)=O)c2c1 [Example 6-33] | – | 0.1 to 1 nM | 31.6 to 200 nM | – | – | –
COc1ccnc2cc(Nc3cc(C)[nH]n3)nc(N[C@@H]3C[C@H]4CC[C@@H](C3)N4C3(CC#N)COC3)c12 [Example 7-10] | 0.1 to 1 nM | 0.1 to 1 nM | – | – | – | Ki [4, 8]: 0.1 to 1 nM
Cc1cc(Nc2cc3nc(CO)ccc3c(N[C@@H]3C[C@H]4CC[C@@H](C3)N4S(C)(=O)=O)n2)n[nH]1 [Example 5-12] | – | 0.1 to 1 nM | 31.6 to 200 nM | – | – | –
COc1cnc2cc(Nc3cc(C)[nH]n3)nc(N[C@@H]3C[C@H]4CCC[C@@H](C3)N4C(=O)CN(C)C)c2c1 [Example 6-30] | – | – | – | B (B represents a pKi value between 9 and 10 (Ki between 1 nM and 0.1 nM)) | B (B represents a pKi value between 9 and 10 (Ki between 1 nM and 0.1 nM)) | Tyk 2 (pKi) [2]: B (B represents a pKi value between 9 and 10 (Ki between 1 nM and 0.1 nM)); THP-1 IL4 pIC50 [3, 9]: C (C represents a pEC50 value<6.7 (EC50>200 nM))
COC(=O)c1cnc2cc(Nc3cc(C)[nH]n3)nc(N[C@@H]3C[C@H]4CC[C@@H](C3)N4C3CCOC3=O)c2c1 (stereo partly drawn) [Example 6-35] | – | 0.1 to 1 nM | 31.6 to 200 nM | – | – | Ki [4, 8]: 0.1 to 1 nM
Cc1cc(Nc2cc3ncccc3c(N[C@@H]3C[C@H]4CCC[C@@H](C3)N4CCC(F)(F)F)n2)n[nH]1 [Example 1-44] | – | – | – | B (B represents a pKi value between 9 and 10 (Ki between 1 nM and 0.1 nM)) | B (B represents a pKi value between 9 and 10 (Ki between 1 nM and 0.1 nM)) | THP-1 IL4 pIC50 [3, 7]: A (A represents a pEC50 value≥7.5 (EC50≤32 nM)); BEAS2B pIC50 [5, 10]: A (A represents a pEC50 value≥7.5 (EC50≤32 nM))
Cc1cc(Nc2cc3ncccc3c(N[C@@H]3C[C@H]4CC[C@@H](C3)N4S(C)(=O)=O)n2)n[nH]1 [Example 4-1] | 0.1 to 1 nM | 0.1 to 1 nM | < 31.6 nM | – | – | –
Cc1cc(Nc2cc3nc(CN4CCN(C)CC4)ccc3c(N[C@@H]3C[C@H]4CC[C@@H](C3)N4S(=O)(=O)N3CCC3)n2)n[nH]1 [Example 5-39] | 0.1 to 1 nM | 0.1 to 1 nM | 31.6 to 200 nM | – | – | Ki [4]: 0.1 to 1 nM
Cc1cnc2c(F)c(Nc3cc(C)[nH]n3)nc(N[C@@H]3C[C@H]4CC[C@@H](C3)N4S(=O)(=O)c3cccnc3)c2c1 [Example 8-20] | – | – | – | C (C represents a pKi value between 7 and 9 (Ki between 100 nM and 1 nM)) | B (B represents a pKi value between 9 and 10 (Ki between 1 nM and 0.1 nM)) | Tyk 2 (pKi) [2]: C (C represents a pKi value between 7 and 9 (Ki between 100 nM and 1 nM)); THP-1 IL4 pIC50 [3, 9]: C (C represents a pEC50 value<6.7 (EC50>200 nM))
Cc1cc(Nc2nc(N[C@@H]3C[C@H]4CCC[C@@H](C3)N4S(C)(=O)=O)c3cccnc3c2F)n[nH]1 [Example 8-10] | – | – | – | A (A represents a pKi value≥10 (Ki≤0.1 nM)) | A (A represents a pKi value≥10 (Ki≤0.1 nM)) | THP-1 IL4 pIC50 [3, 9]: A (A represents a pEC50 value≥7.5 (EC50≤32 nM)); BEAS2B pIC50 [5, 11]: A (A represents a pEC50 value≥7.5 (EC50≤32 nM))
Cc1cnc2cc(Nc3cc(C)[nH]n3)nc(N[C@@H]3C[C@H]4CC[C@@H](C3)N4Cc3ccncc3)c2c1 [Example 6-2] | – | – | – | B (B represents a pKi value between 9 and 10 (Ki between 1 nM and 0.1 nM)) | B (B represents a pKi value between 9 and 10 (Ki between 1 nM and 0.1 nM)) | THP-1 IL4 pIC50 [3, 9]: A (A represents a pEC50 value≥7.5 (EC50≤32 nM)); BEAS2B pIC50 [5, 11]: B (B represents a pEC50 value between 6.7 and 7.5 (EC50 between 200 nM and 32 nM))
COc1ccnc2cc(Nc3cc(C)[nH]n3)nc(N[C@@H]3C[C@H]4CC[C@@H](C3)N4CC(F)(F)F)c12 [Example 7-9] | 0.1 to 1 nM | – | < 31.6 nM | – | – | Ki [4]: 0.1 to 1 nM; IC50 [5, 12]: < 31.6 nM
COc1cnc2cc(Nc3cc(C)[nH]n3)nc(N[C@@H]3C[C@H]4CC[C@@H](C3)N4Cc3ccncc3)c2c1 [Example 6-24] | – | – | – | B (B represents a pKi value between 9 and 10 (Ki between 1 nM and 0.1 nM)) | B (B represents a pKi value between 9 and 10 (Ki between 1 nM and 0.1 nM)) | THP-1 IL4 pIC50 [3, 9]: B (B represents a pEC50 value between 6.7 and 7.5 (EC50 between 200 nM and 32 nM)); BEAS2B pIC50 [5, 11]: B (B represents a pEC50 value between 6.7 and 7.5 (EC50 between 200 nM and 32 nM))
Cc1cc(Nc2cc3ncccc3c(N[C@@H]3C[C@H]4CC[C@@H](C3)N4C(=O)CF)n2)n[nH]1 [Example 2-2] | 1 to 100 nM | 1 to 100 nM | – | – | – | Ki [4, 8]: 0.1 to 1 nM
COc1ccc2c(N[C@@H]3C[C@H]4CC[C@@H](C3)N4C(=O)C3(C(F)(F)F)CC3)nc(Nc3cc(C)[nH]n3)cc2n1 [Example 5-6] | 0.1 to 1 nM | – | < 31.6 nM | – | – | Ki [4, 8]: 0.1 to 1 nM; IC50 [5, 12]: < 31.6 nM
Cc1cc(Nc2cc3ncccc3c(N[C@@H]3C[C@H]4CCC[C@@H](C3)N4CCF)n2)n[nH]1 [Example 1-39] | – | – | – | B (B represents a pKi value between 9 and 10 (Ki between 1 nM and 0.1 nM)) | B (B represents a pKi value between 9 and 10 (Ki between 1 nM and 0.1 nM)) | THP-1 IL4 pIC50 [3, 7]: A (A represents a pEC50 value≥7.5 (EC50≤32 nM)); BEAS2B pIC50 [5, 10]: A (A represents a pEC50 value≥7.5 (EC50≤32 nM))
COc1cnc2cc(Nc3cc(C)[nH]n3)nc(N[C@@H]3C[C@H]4CCC[C@@H](C3)N4Cc3ccncc3)c2c1 [Example 6-28] | – | – | – | B (B represents a pKi value between 9 and 10 (Ki between 1 nM and 0.1 nM)) | B (B represents a pKi value between 9 and 10 (Ki between 1 nM and 0.1 nM)) | THP-1 IL4 pIC50 [3, 9]: A (A represents a pEC50 value≥7.5 (EC50≤32 nM)); BEAS2B pIC50 [5, 11]: A (A represents a pEC50 value≥7.5 (EC50≤32 nM))
CCOC(=O)N1[C@@H]2CCC[C@H]1C[C@H](Nc1nc(Nc3cc(C)[nH]n3)cc3ncccc13)C2 [Example 3-6] | – | – | – | – | B (B represents a pKi value between 9 and 10 (Ki between 1 nM and 0.1 nM)) | Tyk 2 (pKi) [2]: B (B represents a pKi value between 9 and 10 (Ki between 1 nM and 0.1 nM)); THP-1 IL4 pIC50 [3, 7]: A (A represents a pEC50 value≥7.5 (EC50≤32 nM))
Cc1cc(Nc2nc(N[C@@H]3C[C@H]4CC[C@@H](C3)N4Cc3ccncc3)c3cccnc3c2F)n[nH]1 [Example 8-6] | – | – | – | B (B represents a pKi value between 9 and 10 (Ki between 1 nM and 0.1 nM)) | B (B represents a pKi value between 9 and 10 (Ki between 1 nM and 0.1 nM)) | THP-1 IL4 pIC50 [3, 9]: B (B represents a pEC50 value between 6.7 and 7.5 (EC50 between 200 nM and 32 nM)); BEAS2B pIC50 [5, 11]: B (B represents a pEC50 value between 6.7 and 7.5 (EC50 between 200 nM and 32 nM))
Cc1cc(Nc2cc3ncccc3c(N[C@@H]3C[C@H]4CCC[C@@H](C3)N4CC(C)C)n2)n[nH]1 [Example 1-43] | – | – | – | B (B represents a pKi value between 9 and 10 (Ki between 1 nM and 0.1 nM)) | B (B represents a pKi value between 9 and 10 (Ki between 1 nM and 0.1 nM)) | THP-1 IL4 pIC50 [3, 7]: A (A represents a pEC50 value≥7.5 (EC50≤32 nM)); BEAS2B pIC50 [5, 10]: A (A represents a pEC50 value≥7.5 (EC50≤32 nM))
COc1cnc2cc(Nc3cc(C)[nH]n3)nc(N[C@@H]3C[C@H]4CC[C@@H](C3)N4CCC(F)(F)F)c2c1 [Example 6-15] | – | – | – | B (B represents a pKi value between 9 and 10 (Ki between 1 nM and 0.1 nM)) | B (B represents a pKi value between 9 and 10 (Ki between 1 nM and 0.1 nM)) | THP-1 IL4 pIC50 [3, 9]: A (A represents a pEC50 value≥7.5 (EC50≤32 nM)); BEAS2B pIC50 [5, 11]: A (A represents a pEC50 value≥7.5 (EC50≤32 nM))
Cc1cc(Nc2cc3ncccc3c(N[C@@H]3C[C@H]4CCC[C@@H](C3)N4S(=O)(=O)Cc3cccnc3)n2)n[nH]1 [Example 4-26] | – | – | – | B (B represents a pKi value between 9 and 10 (Ki between 1 nM and 0.1 nM)) | B (B represents a pKi value between 9 and 10 (Ki between 1 nM and 0.1 nM)) | THP-1 IL4 pIC50 [3, 7]: B (B represents a pEC50 value between 6.7 and 7.5 (EC50 between 200 nM and 32 nM)); BEAS2B pIC50 [5, 10]: B (B represents a pEC50 value between 6.7 and 7.5 (EC50 between 200 nM and 32 nM))
Cc1cc(Nc2cc3ncccc3c(N[C@@H]3C[C@H]4CC[C@@H](C3)N4S(=O)(=O)c3cncc(F)c3)n2)n[nH]1 [Example 4-15] | 0.1 to 1 nM | – | < 31.6 nM | – | – | Ki [4, 8]: 0.1 to 1 nM; IC50 [5, 12]: < 31.6 nM
